Entries after “also recorded” stand apart in the source; their conditions may differ.
Columns and labels:
[1] = system: HUVECs; assay: In vitro cytotoxicity (MTT) assay, HUVECs; assay type: cell-based, human; conditions: 1 μg/mL to 100 μg/mL, 24 hr
Protocol: For cell cytotoxicity assay, the cells were then seeded into 96-well flat-bottomed tissue-culture plates at 1×10^4 cells/well and incubated for 24 hr in humidified atmosphere of 5% (vol./vol.) CO2 at 37° C. in the presence of each compound. The multivalent compound (monomer, dimer, and trimer) sample solutions were diluted with culture medium (1% FBS added) to obtain concentrations in the range of 0.1-100 μg/mL for each compound. The cytotoxic effects of monomer, dimer and trimer compounds were evaluated by adding 100 μL of each sample in 100 μL culture medium to each well. After 24-hrs' incubation, cell viability was evaluated by mitochondrial conversion of 3-(4,5-dimethylthiazol-2-yl)-2,5-diphenyl tetrazolium bromide (MTT assay) (Allison et al., 1985).

[2] = system: U-87 MG (ATCC HTB-14) glioblastoma cells over-expressing integrin αvβ3; assay: Fluorescence microscopy probe binding assay in U-87 cells; assay type: cell-based, human; conditions: blocking dose 20 μmol/L
Protocol: Fluorescence Microscopy Studies. […] For fluorescence microscopy studies, 1×10^4 U-87 cells were cultured on 35 mm MatTek glass bottom culture dishes. After 24 hr, cells were washed with PBS and then incubated with bivalent-IA-Cy5.5 (200 nM) at 37° C. for 45 min. Integrin specificity of the probe binding was verified by incubating U-87 cells with and without a blocking dose of the non-fluorescent bivalent IA (20 μmol/L). After the incubation period, the cells were washed three times with ice-cold PBS. The fluorescence signal of the cells was recorded using FluoView® 1000 Laser Scanning Confocal Microscope (Olympus, Center Valley, Pa., USA) under a 40× oil-immersion objective, with laser excitation at 675 nm (Cy5.5). A differential interference contrast image was also recorded so that the origin of fluorescent signals could be confirmed.

O=C(NCCS(=O)(=O)N[C@@H](CNC(=O)c1ccc(OCCNC2=NCCCN2)cc1)C(=O)O)OCCN(CCOC(=O)NCCS(=O)(=O)N[C@@H](CNC(=O)c1ccc(OCCNC2=NCCCN2)cc1)C(=O)O)CCOC(=O)NCCS(=O)(=O)N[C@@H](CNC(=O)c1ccc(OCCNC2=NCCCN2)cc1)C(=O)O [IA trimer]
cytotoxicity on HUVEC cells [1]: increased cytotoxicity over the IA-monomer and dimer

NC(CCCCCC(=O)NCCS(=O)(=O)N[C@@H](CNC(=O)c1ccc(OCCNC2=NCCCN2)cc1)C(=O)O)C(=O)NCCS(=O)(=O)N[C@@H](CNC(=O)c1ccc(OCCNC2=NCCCN2)cc1)C(=O)O (some centres unmarked) [bivalent IA]
blocking of bivalent-IA-Cy5.5 binding/endocytosis in U-87 cells [2]: complete blockage of endocytosis of the imaging probes; also recorded: effectively blocked

Reference: patent publication US9833520B2, “Labeled, non-peptidic, multivalent integrin antagonist compounds; methods for synthesis and uses thereof” (The Methodist Hospital Research Institute, priority 2011, dated 2017)
